Literature values in patent publication US20080200492A1, “METHODS FOR THE TREATMENT OF ALCOHOL ABUSE, ADDICTION AND DEPENDENCY” (priority 2006, published 2008).

Tested on: golden hamster
Details: cited from earlier work

Structure (SMILES): O=c1c(-c2ccc(O)cc2)coc2cc(O[C@@H]3O[C@H](CO)[C@@H](O)[C@H](O)[C@H]3O)ccc12 [Daidzin]
- Alcohol drinking, water or food intake: decreases alcohol drinking in the golden hamster, without producing a decrease in water or food intake
